Measured values reported in patent publication US20150159192A1, “STERILIZATION INDICATORS INCLUDING A NEUTRALIZER AND METHODS” (3M INNOVATIVE PROPERTIES COMPANY, priority 2010, published 2015).
Like-named read-outs stand apart in the source and are kept apart here.

Columns and labels:
[1] = test system: Geobacillus stearothermophilus spores; test: Hydrogen peroxide neutralizers in BI recovery medium, spore outgrowth after STERRAD 100S cycle; format: cell-based; design: key to Negative Control / Positive Control: Pos*/Neg*—positive (yellow) or negative (purple) was discolored by the additive; Pos*/Neg*—positive (yellow) or negative (purple) was discolored by the additive; Neg^3—positive control did not grow
Description: This example compares the neutralization effectiveness of different additives in the biological indicators recovery medium. The additives (neutralizers) were added to the recovery media used in the 3M ATTEST 1292 Rapid Readout Biological Indicators. Catalase, L-cysteine, sodium thiosulfate, D-ethionine, S-methyl-cysteine, S-benzyl-L-cysteine, thiodiproprionic acid, potassium ferricyanide and sodium pyruvate were all purchased from Sigma-Aldrich Corporation, St. Louis, Mo. Isoascorbic acid was purchased from Alfa Aesar, Ward Hill, Mass. Methionine was purchased from Calbiochem, EMD Chemicals, Gibbstown, N.J.
3M ATTEST 1292 Biological Indicators were steam sterilized to kill the existing spore population. Two sets of 3M ATTEST 1292 BIs were evaluated, one set contained the paper spore carrier used in the commercially available indicator. In the second set, the spore carrier was replaced with fiberglass strips, commercially available as […] 230-11.0 (Crane &Co., Inc., Dalton, Mass.). The steam sterilized BIs were then exposed in a STERRAD 100S hydrogen peroxide/plasma sterilization cycle. Immediately following the hydrogen peroxide/plasma sterilization, the BIs containing media with and without additives were inoculated with less than 100 Geobacillus stearothermophilus spores recovered from a 3M ATTEST 1292 BI spore strip. The indicators were incubated at 60° C. (+/−2° C.) for 7 days and observed for growth, indicated by a color change from purple to yellow. A positive and negative control was tested for each additive. The positive controls were steam sterilized and inoculated with less than 100 spores. The negative controls were steam sterilized.

[2] = test system: Geobacillus stearothermophilus spores; test: Remediation of residual hydrogen peroxide, spore recovery method with sodium thiosulfate; format: cell-based
[3] = additive 1 g/l, CRANEGLAS fiberglass carrier, 7 days
[4] = additive 1 g/l, paper spore carrier, 7 days
[5] = additive 1 g/l, steam sterilized and inoculated with less than 100 spores, no H2O2
[6] = additive 1 g/l, steam sterilized, not inoculated
[7] = additive 2 g/l, CRANEGLAS fiberglass carrier, 7 days
[8] = additive 2 g/l, paper spore carrier, 7 days
[9] = additive 2 g/l, steam sterilized and inoculated with less than 100 spores, no H2O2
[10] = additive 2 g/l, steam sterilized, not inoculated
[11] = additive 4 g/l, CRANEGLAS fiberglass carrier, 7 days
[12] = additive 4 g/l, paper spore carrier, 7 days
[13] = additive 4 g/l, steam sterilized and inoculated with less than 100 spores, no H2O2
[14] = additive 4 g/l, steam sterilized, not inoculated
[15] = additive 8 g/l, CRANEGLAS fiberglass carrier, 7 days
[16] = additive 8 g/l, paper spore carrier, 7 days
[17] = additive 8 g/l, steam sterilized and inoculated with less than 100 spores, no H2O2
[18] = additive 8 g/l, steam sterilized, not inoculated

Molecule	No. Pos. CRANEGLAS [1, 3]	No. Pos. Paper [1, 4]	Positive Control [1, 5]	Negative Control [1, 6]	No. Pos. CRANEGLAS [1, 7]	No. Pos. Paper [1, 8]	Positive Control [1, 9]	Negative Control [1, 10]	No. Pos. CRANEGLAS [1, 11]	No. Pos. Paper [1, 12]	Positive Control [1, 13]	Negative Control [1, 14]	No. Pos. CRANEGLAS [1, 15]	No. Pos. Paper [1, 16]	Positive Control [1, 17]	Negative Control [1, 18]	also measured
CSCC[C@H](N)C(=O)O [Methionine]	4	0	Pos	Neg	4	0	Pos	Neg	4	3	Pos	Neg	4	3	Pos	Neg	
CCSCC[C@@H](N)C(=O)O [D-ethionine]	4	2	Pos	Neg	4	0	Pos	Neg	4	2	Pos	Neg	4	3	Pos	Neg	
CC(=O)C(=O)[O-].[Na+] [Sodium pyruvate, sodium pyruvate]		0	Pos	Neg		2	Pos	Neg		3	Pos	Neg		3	Pos	Neg	
N[C@@H](CSCc1ccccc1)C(=O)O [S-benzyl-L-cysteine]	4	0	Pos	Neg	4	0	Pos	Neg	4	0	Pos	Neg					
CSC[C@H](N)C(=O)O [S-methyl-cysteine]	4	0	Pos	Neg	4	0	Pos	Neg	4	2	Pos	Neg	4	3	Pos*	Neg	
O=S([O-])([O-])=S.[Na+].[Na+] [Sodium thiosulfate, sodium thiosulfate]																	Additive level that effectively neutralized the paper carriers [1]: 1 gram per liter; Negative Control [1]: Neg and Neg*; No. Pos. CRANEGLAS [1]: 4; No. Pos. Paper [1]: 3; Positive Control [1]: Pos; Spore recovery ability (in words) [2]: good spore recovery agent
N[C@@H](CS)C(=O)O [L-cysteine]	4	1	Pos	Neg	4	0	Pos	Neg	4	3	Pos	Neg	4	3	Pos	Neg	
O=C(O)CCSCCC(=O)O [Thiodiproprionic acid, thiodiproprionic acid]	1	0	Pos	Neg	3	0	Neg^3	Neg	3	0	Neg^3	Neg	3	3	Pos	Neg	
O=C1O[C@H]([C@H](O)CO)C(O)=C1O [Isoascorbic acid]	0	3	Pos	Neg	4	3	Pos	Neg*	4	3	Pos*	Neg*	4	3	Pos*	Neg*	Additive level that effectively neutralized the paper carriers ([1]; paper carriers): 1 gram per liter
Catalase (protein, UniProt P00432 2-527, looked up, enzyme neutralizer from Sigma-Aldrich, 226 units added per vial) Catalase: ADNRDPASDQMKHWKEQRAAQKPDVLTTGGGNPVGDKLNSLTVGPRGPLLVQDVVFTDEMAHFDRERIPERVVHAKGAGAFGYFEVTHDITRYSKAKVFEHIGKRTPIAVRFSTVAGESGSADTVRDPRGFAVKFYTEDGNWDLVGNNTPIFFIRDALLFPSFIHSQKRNPQTHLKDPDMVWDFWSLRPESLHQVSFLFSDRGIPDGHRHMNGYGSHTFKLVNANGEAVYCKFHYKTDQGIKNLSVEDAARLAHEDPDYGLRDLFNAIATGNYPSWTLYIQVMTFSEAEIFPFNPFDLTKVWPHGDYPLIPVGKLVLNRNPVNYFAEVEQLAFDPSNMPPGIEPSPDKMLQGRLFAYPDTHRHRLGPNYLQIPVNCPYRARVANYQRDGPMCMMDNQGGAPNYYPNSFSAPEHQPSALEHRTHFSGDVQRFNSANDDNVTQVRTFYLKVLNEEQRKRLCENIAGHLKDAQLFIQKKAVKNFSDVHPEYGSRIQALLDKYNEEKPKNAVHTYVQHGSHLSAREKANL																	Neutralization of residual hydrogen peroxide (in words) [1]: sufficiently neutralized; No. Pos. CRANEGLAS ([1]; 226 units added per vial, CRANEGLAS fiberglass carrier, 7 days): 4; No. Pos. Paper ([1]; 226 units added per vial, paper spore carrier, 7 days): 3; Positive Control ([1]; 226 units added per vial, steam sterilized and inoculated): Pos; Negative Control ([1]; 226 units added per vial, steam sterilized, not inoculated): Neg
